{"source": "PubChem BioAssay (NCI)", "experiment_in_all_cases": "NCI tumour cell line growth inhibition, 48 h", "key": {"HL-60(TB) leukemia": {"test_system": "HL-60(TB) leukemia"}, "OVCAR-8 ovarian": {"test_system": "OVCAR-8 ovarian"}, "HCC-2998 colon": {"test_system": "HCC-2998 colon"}, "COLO 205 colon": {"test_system": "COLO 205 colon"}, "SK-OV-3 ovarian": {"test_system": "SK-OV-3 ovarian"}, "OVCAR-4 ovarian": {"test_system": "OVCAR-4 ovarian"}, "CCRF-CEM leukemia": {"test_system": "CCRF-CEM leukemia"}, "SK-MEL-28 melanoma": {"test_system": "SK-MEL-28 melanoma"}, "KM12 colon": {"test_system": "KM12 colon"}, "SN12C renal": {"test_system": "SN12C renal"}, "SF-268 CNS": {"test_system": "SF-268 CNS"}, "SK-MEL-2 melanoma": {"test_system": "SK-MEL-2 melanoma"}, "RPMI-8226 leukemia": {"test_system": "RPMI-8226 leukemia"}, "UACC-62 melanoma": {"test_system": "UACC-62 melanoma"}, "SK-MEL-5 melanoma": {"test_system": "SK-MEL-5 melanoma"}, "NCI-H460 lung": {"test_system": "NCI-H460 lung"}, "A549 NSCLC": {"test_system": "A549 NSCLC"}, "MDA-MB-435": {"test_system": "MDA-MB-435"}, "K-562 leukemia": {"test_system": "K-562 leukemia"}, "SNB-19 CNS": {"test_system": "SNB-19 CNS"}, "CAKI-1 renal": {"test_system": "CAKI-1 renal"}, "HCT-15 colon": {"test_system": "HCT-15 colon"}, "OVCAR-5 ovarian": {"test_system": "OVCAR-5 ovarian"}, "SF-539 CNS": {"test_system": "SF-539 CNS"}, "SF-295 CNS": {"test_system": "SF-295 CNS"}, "UO-31 renal": {"test_system": "UO-31 renal"}, "SNB-75 CNS": {"test_system": "SNB-75 CNS"}, "MCF7 breast": {"test_system": "MCF7 breast"}, "SW-620 colon": {"test_system": "SW-620 colon"}, "T-47D breast": {"test_system": "T-47D breast"}, "MALME-3M melanoma": {"test_system": "MALME-3M melanoma"}, "NCI-H23 lung": {"test_system": "NCI-H23 lung"}, "UACC-257 melanoma": {"test_system": "UACC-257 melanoma"}, "HT29 colon": {"test_system": "HT29 colon"}, "HS 578T breast": {"test_system": "HS 578T breast"}, "PC-3 prostate": {"test_system": "PC-3 prostate"}, "ACHN renal": {"test_system": "ACHN renal"}, "RXF 393 renal": {"test_system": "RXF 393 renal"}, "TK-10 renal": {"test_system": "TK-10 renal"}, "DU-145 prostate": {"test_system": "DU-145 prostate"}, "786-0 renal": {"test_system": "786-0 renal"}, "NCI/ADR-RES ovarian": {"test_system": "NCI/ADR-RES ovarian"}, "HCT-116 colon": {"test_system": "HCT-116 colon"}, "IGROV1 ovarian": {"test_system": "IGROV1 ovarian"}, "MOLT-4 leukemia": {"test_system": "MOLT-4 leukemia"}, "HOP-62 NSCLC": {"test_system": "HOP-62 NSCLC"}, "LOX IMVI melanoma": {"test_system": "LOX IMVI melanoma"}, "MDA-N": {"test_system": "MDA-N"}, "U251 CNS": {"test_system": "U251 CNS"}, "NCI-H522 lung": {"test_system": "NCI-H522 lung"}, "NCI-H226 lung": {"test_system": "NCI-H226 lung"}, "OVCAR-3 ovarian": {"test_system": "OVCAR-3 ovarian"}, "MDA-MB-231 breast": {"test_system": "MDA-MB-231 breast"}, "M14 melanoma": {"test_system": "M14 melanoma"}, "SR leukemia": {"test_system": "SR leukemia"}, "HOP-92 NSCLC": {"test_system": "HOP-92 NSCLC"}}, "note": "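Five compound concentrations were applied to cells in 96-well plates for 48 hours; endpoints were derived by simple linear interpolation of the resulting dose-response curve. TGI marks complete inhibition of growth.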"}
{"molecule": "Cc1cn(C2C=CC(COP(=O)(OCC3=CC(=O)c4ccccc4C3=O)N(C)CCCCCl)O2)c(=O)[nH]c1=O", "note": "(stereo unspecified)", "values": [{"measurement": "TGI", "setting": "HL-60(TB) leukemia", "result": 4.41, "unit": "µM"}, {"measurement": "TGI", "setting": "OVCAR-8 ovarian", "result": 26.6, "unit": "µM"}, {"measurement": "TGI", "setting": "HCC-2998 colon", "result": 4.42, "unit": "µM"}, {"measurement": "TGI", "setting": "COLO 205 colon", "result": 10.9, "unit": "µM"}, {"measurement": "TGI", "setting": "SK-OV-3 ovarian", "result": 23, "unit": "µM"}, {"measurement": "TGI", "setting": "OVCAR-4 ovarian", "result": 23.2, "unit": "µM"}, {"measurement": "TGI", "setting": "CCRF-CEM leukemia", "result": 11.9, "unit": "µM"}, {"measurement": "TGI", "setting": "SK-MEL-28 melanoma", "result": 18.2, "unit": "µM"}, {"measurement": "TGI", "setting": "KM12 colon", "result": 28.7, "unit": "µM"}, {"measurement": "TGI", "setting": "SN12C renal", "result": 23.9, "unit": "µM"}, {"measurement": "TGI", "setting": "SF-268 CNS", "result": 24.4, "unit": "µM"}, {"measurement": "TGI", "setting": "SK-MEL-2 melanoma", "result": 27.2, "unit": "µM"}, {"measurement": "TGI", "setting": "RPMI-8226 leukemia", "result": 20.8, "unit": "µM"}, {"measurement": "TGI", "setting": "UACC-62 melanoma", "result": 14.3, "unit": "µM"}, {"measurement": "TGI", "setting": "SK-MEL-5 melanoma", "result": 2.28, "unit": "µM"}, {"measurement": "TGI", "setting": "NCI-H460 lung", "result": 11.2, "unit": "µM"}, {"measurement": "TGI", "setting": "A549 NSCLC", "result": 2.97, "unit": "µM"}, {"measurement": "TGI", "setting": "MDA-MB-435", "result": 3.35, "unit": "µM"}, {"measurement": "TGI", "setting": "K-562 leukemia", "result": 21.1, "unit": "µM"}, {"measurement": "TGI", "setting": "SNB-19 CNS", "result": 25.6, "unit": "µM"}, {"measurement": "TGI", "setting": "CAKI-1 renal", "result": 25.9, "unit": "µM"}, {"measurement": "TGI", "setting": "HCT-15 colon", "result": 20.9, "unit": "µM"}, {"measurement": "TGI", "setting": "OVCAR-5 ovarian", "result": 27.1, "unit": "µM"}, {"measurement": "TGI", "setting": "SF-539 CNS", "result": 25.8, "unit": "µM"}, {"measurement": "TGI", "setting": "SF-295 CNS", "result": 11.3, "unit": "µM"}, {"measurement": "TGI", "setting": "UO-31 renal", "result": 25.4, "unit": "µM"}, {"measurement": "TGI", "setting": "SNB-75 CNS", "result": 11.9, "unit": "µM"}, {"measurement": "TGI", "setting": "MCF7 breast", "result": 20.5, "unit": "µM"}, {"measurement": "TGI", "setting": "SW-620 colon", "result": 29.3, "unit": "µM"}, {"measurement": "TGI", "setting": "T-47D breast", "result": 9.26, "unit": "µM"}, {"measurement": "TGI", "setting": "MALME-3M melanoma", "result": 0.982, "unit": "µM"}, {"measurement": "TGI", "setting": "NCI-H23 lung", "result": 6.49, "unit": "µM"}, {"measurement": "TGI", "setting": "UACC-257 melanoma", "result": 13.9, "unit": "µM"}, {"measurement": "TGI", "setting": "HT29 colon", "result": 29.4, "unit": "µM"}, {"measurement": "TGI", "setting": "HS 578T breast", "result": 18.6, "unit": "µM"}, {"measurement": "TGI", "setting": "PC-3 prostate", "result": 24.5, "unit": "µM"}, {"measurement": "TGI", "setting": "ACHN renal", "result": 26.4, "unit": "µM"}, {"measurement": "TGI", "setting": "RXF 393 renal", "result": 15.8, "unit": "µM"}, {"measurement": "TGI", "setting": "TK-10 renal", "result": 36.5, "unit": "µM"}, {"measurement": "TGI", "setting": "DU-145 prostate", "result": 3.06, "unit": "µM"}, {"measurement": "TGI", "setting": "786-0 renal", "result": 25.3, "unit": "µM"}, {"measurement": "TGI", "setting": "NCI/ADR-RES ovarian", "result": 36.2, "unit": "µM"}, {"measurement": "TGI", "setting": "HCT-116 colon", "result": 26.9, "unit": "µM"}, {"measurement": "TGI", "setting": "IGROV1 ovarian", "result": 22.4, "unit": "µM"}, {"measurement": "TGI", "setting": "MOLT-4 leukemia", "result": 0.769, "unit": "µM"}, {"measurement": "TGI", "setting": "HOP-62 NSCLC", "result": 23.9, "unit": "µM"}, {"measurement": "TGI", "setting": "LOX IMVI melanoma", "result": 8.66, "unit": "µM"}, {"measurement": "TGI", "setting": "MDA-N", "result": 4.22, "unit": "µM"}, {"measurement": "TGI", "setting": "U251 CNS", "result": 17.7, "unit": "µM"}, {"measurement": "TGI", "setting": "NCI-H522 lung", "result": 29.4, "unit": "µM"}, {"measurement": "TGI", "setting": "NCI-H226 lung", "result": 25, "unit": "µM"}, {"measurement": "TGI", "setting": "OVCAR-3 ovarian", "result": 19.1, "unit": "µM"}, {"measurement": "TGI", "setting": "MDA-MB-231 breast", "result": 25.5, "unit": "µM"}, {"measurement": "TGI", "setting": "M14 melanoma", "result": 2.84, "unit": "µM"}, {"measurement": "TGI", "setting": "SR leukemia", "result": 2.05, "unit": "µM"}, {"measurement": "TGI", "setting": "HOP-92 NSCLC", "result": 20.9, "unit": "µM"}]}
